# In patent US20240368150A1 (Hoffmann-La Roche Inc., priority 2021, published 2024):
# Like-named read-outs stand apart in the source and are kept apart here.
# Key:
# primary human T-cells [1] = experiment: Proliferation assay after 5 days (CellTiter-Glo, CD3 stimulation; PBS counter screen); type: cell-based; settings: CD3 stimulation; for Emax / Emax proliferation (% activation): 5 days, normalized to reference compound A1 as stimulator control = 100%, DMSO neutral control; for Emax: read-out: Emax proliferation (% activation); for EC50: primary human T-cells, CellTiter-Glo after 5 days, EC50 of fitted sigmoidal curve, read-out: Tcell Proliferation CD3 EC50
# Procedure: Compounds are then added (see next section) to medium only plates.
# Cells are assessed for proliferation 5 days later by measuring […] using CellTiterGlo (Promega).
# After 5 days, for detection of ATP which is directly proportional to the number of cells present per well, the CellTiter-Glo® 2.0 Reagent is used. After visual control for toxicity or precipitations of the tested compounds, the plates are equilibrated to room temperature for 45 minutes. CellTiter-Glo® 2.0 Reagent is equilibrated to room temperature as well. After equilibration, an equal amount of CellTiter-Glo reagent is added to the cells (80 μl/well) with an electronic multichannel pipette. Plates are placed on a rocking platform for 15 minutes at room temperature. After incubation, the bottom of the plates is sealed with backing tape. Luminescence is measured with PHERAstar FSX (interval time 0.5 sec, gain 3000, focal height 15 mm) and exported as CSV file for analysis in Genedata screener.
# Compounds which activate unstimulated cells (see IL2 measurements) or compounds which negatively affected viability were flagged.
# primary human T-cells [2] = system: primary human T-cells
SMILES,EC50 (primary human T-cells [2]) [µM],"Emax (primary human T-cells [1]; Homo sapiens, T-cell, 120 h) [%]","EC50 (primary human T-cells [1]; Homo sapiens, T-cell, 120 h) [µM]",Emax proliferation (% activation) (primary human T-cells [1]),EC50 (primary human T-cells [1]) [µM]
"CC(=O)N[C@H]1CS(=O)(=O)c2cc(F)c(-c3nnn(C4CNCC(F)(F)C4)n3)cc2N(Cc2ccc(Cl)cc2)C1=O (stereo partly drawn) [Example 26, N-[(3R)-5-[(4-chlorophenyl)methyl]-7-[2-(5,5-difluoro-3-piperidyl)tetrazol-5-yl]-8-fluoro-1,1,4-trioxo-2,3-dihydro-1λ^6,5-benzothiazepin-3-yl]acetamide]",> 10,64,6.39,,
CC(C)(C)n1nnc(-c2cc3c(cc2F)S(=O)(=O)C[C@H](N)C(=O)N3Cc2ccc(F)cc2)n1 [Example 32],7.63,101,0.808,,
"CC(C)(C)n1nnc(-c2cc3c(cc2F)S(=O)(=O)C[C@H](N)C(=O)N3Cc2ccc(OCC3CCOCC3)cc2)n1 [Example 33, (3R)-3-amino-7-(2-tert-butyltetrazol-5-yl)-8-fluoro-1,1-dioxo-5-[[4-(tetrahydropyran-4-ylmethoxy)phenyl]methyl]-2,3-dihydro-1λ^6,5-benzothiazepin-4-one]",5.28,104,1.9,,
"CC(C)(C)n1nnc(-c2cc3c(cc2F)[S+]([O-])C[C@H](N)C(=O)N3Cc2ccc(Cl)cc2)n1 (stereo partly drawn) [Example 34, (3R)-3-amino-7-(2-tert-butyltetrazol-5-yl)-5-[(4-chlorophenyl)methyl]-8-fluoro-1-oxo-2,3-dihydro-1λ^4,5-benzothiazepin-4-one]",5.87,,,100,2.8
"CC(C)(C)n1nnc(-c2cc3c(cc2F)[S+]([O-])C[C@H](N)C(=O)N3Cc2ccc(Cl)cc2)n1 (stereo partly drawn) [Example 35, (3R)-3-amino-7-(2-tert-butyltetrazol-5-yl)-5-[(4-chlorophenyl)methyl]-8-fluoro-1-oxo-2,3-dihydro-1λ^4,5-benzothiazepin-4-one]",7.13,,,125,1.24
"N[C@H]1CS(=O)(=O)c2cc(F)c(-c3ccn[nH]3)cc2N(Cc2ccc(Cl)cc2)C1=O [Example 37, (3R)-3-amino-5-[(4-chlorophenyl)methyl]-8-fluoro-1,1-dioxo-7-(1H-pyrazol-5-yl)-2,3-dihydro-1λ^6,5-benzothiazepin-4-one]",> 20,57,15.3,,
"CCc1nc(-c2cc3c(cc2F)S(=O)(=O)C[C@H](N)C(=O)N3Cc2ccc(Cl)cc2)n[nH]1 [Example 38, (3R)-3-amino-5-[(4-chlorophenyl)methyl]-7-(5-ethyl-1H-1,2,4-triazol-3-yl)-8-fluoro-1,1-dioxo-2,3-dihydro-1λ^6,5-benzothiazepin-4-one]",> 20,50,> 20,,
"CC(C)(CN1CCCC1=O)c1nnc(-c2cc3c(cc2F)S(=O)(=O)C[C@H](N)C(=O)N3Cc2ccc(Cl)cc2)o1 [Example 64, (3R)-3-amino-5-[(4-chlorophenyl)methyl]-7-[5-[1,1-dimethyl-2-(2-oxopyrrolidin-1-yl)ethyl]-1,3,4-oxadiazol-2-yl]-8-fluoro-1,1-dioxo-2,3-dihydro-1λ^6,5-benzothiazepin-4-one]",4.35,36,> 10,,
"N[C@H]1CS(=O)(=O)c2cc(F)c(-c3nnc(C4(CO)CC4)o3)cc2N(Cc2ccc(Cl)cc2)C1=O [Example 65, (3R)-3-amino-5-[(4-chlorophenyl)methyl]-8-fluoro-7-[5-[1-(hydroxymethyl)cyclopropyl]-1,3,4-oxadiazol-2-yl]-1,1-dioxo-2,3-dihydro-1λ^6,5-benzothiazepin-4-one]",3.85,77,1.06,,

# The next compounds have a lower EC50 (primary human T-cells [2]) than those just listed; values first:
EC50 (primary human T-cells [2]) [µM],SMILES,"Emax (primary human T-cells [1]; Homo sapiens, T-cell, 120 h) [%]","EC50 (primary human T-cells [1]; Homo sapiens, T-cell, 120 h) [µM]",Emax proliferation (% activation) (primary human T-cells [1]),EC50 (primary human T-cells [1]) [µM]
1.32,"COC(=O)N1CC(n2nnc(-c3cc4c(cc3F)S(=O)(=O)C[C@H](N)C(=O)N4Cc3ccc(Cl)cc3)n2)CC(F)(F)C1 (stereo partly drawn) [Example 25, methyl 3,3-difluoro-5-[5-[(3R)-3-amino-5-[(4-chlorophenyl)methyl]-8-fluoro-1,1,4-trioxo-2,3-dihydro-1λ^6,5-benzothiazepin-7-yl]tetrazol-2-yl]piperidine-1-carboxylate]",132,0.249,,
1.23,"CC(C)(O)Cn1nnc(-c2cc3c(cc2F)S(=O)(=O)C[C@H](N)C(=O)N3Cc2ccc(Cl)cc2)n1 [Example 27, (3R)-3-amino-5-[(4-chlorophenyl)methyl]-8-fluoro-7-[2-(2-hydroxy-2-methyl-propyl)tetrazol-5-yl]-1,1-dioxo-2,3-dihydro-1λ^6,5-benzothiazepin-4-one]",103,2.05,,
0.0398,"CC(C)(C)n1nnc(-c2cc3c(cc2F)S(=O)(=O)C[C@H](N)C(=O)N3Cc2ccc(OC(F)(F)F)cc2)n1 [Example 30, (3R)-3-amino-7-(2-tert-butyltetrazol-5-yl)-8-fluoro-1,1-dioxo-5-[[4-(trifluoromethoxy)phenyl]methyl]-2,3-dihydro-1λ^6,5-benzothiazepin-4-one]",117,0.0435,,
0.344,"CC(C)(C)n1nnc(-c2ccc3c(c2)N(Cc2ccc(OC(F)(F)F)cc2)C(=O)[C@@H](N)CS3(=O)=O)n1 [Example 31, (3R)-3-amino-7-(2-tert-butyltetrazol-5-yl)-1,1-dioxo-5-[[4-(trifluoromethoxy)phenyl]methyl]-2,3-dihydro-1λ^6,5-benzothiazepin-4-one]",97,0.276,,
0.842,"N[C@H]1CS(=O)(=O)c2ccc(-c3nc(CC(F)(F)F)no3)nc2N(Cc2ccc(Cl)cc2)C1=O [Example 39, (3R)-3-amino-5-[(4-chlorophenyl)methyl]-1,1-dioxo-7-[3-(2,2,2-trifluoroethyl)-1,2,4-oxadiazol-5-yl]-2,3-dihydropyrido[3,2-b][1,4]thiazepin-4-one]",161,0.486,,
2.86,"CC(C)(F)c1nc(-c2cc3c(cc2F)S(=O)(=O)C[C@H](N)C(=O)N3Cc2ccc(Cl)cc2)no1 [Example 47, (3R)-3-amino-5-[(4-chlorophenyl)methyl]-8-fluoro-7-[5-(1-fluoro-1-methyl-ethyl)-1,2,4-oxadiazol-3-yl]-1,1-dioxo-2,3-dihydro-1λ^6,5-benzothiazepin-4-one]",142,0.561,,
0.975,"CC(C)(C)c1cc(-c2cc3c(cc2F)S(=O)(=O)C[C@H](N)C(=O)N3Cc2ccc(Cl)cc2)on1 [Example 52, (3R)-3-amino-7-(3-tert-butylisoxazol-5-yl)-5-[(4-chlorophenyl)methyl]-8-fluoro-1,1-dioxo-2,3-dihydro-1λ^6,5-benzothiazepin-4-one]",133,1.09,,
< 0.162,"N[C@H]1CS(=O)(=O)c2cc(F)c(-c3nnc(C4CCCCC4(F)F)o3)cc2N(Cc2ccc(OC(F)(F)F)cc2)C1=O (stereo partly drawn) [Example 53, (3R)-3-amino-7-[5-(2,2-difluorocyclohexyl)-1,3,4-oxadiazol-2-yl]-8-fluoro-1,1-dioxo-5-[[4-(trifluoromethoxy)phenyl]methyl]-2,3-dihydro-1λ^6,5-benzothiazepin-4-one]",243,< 0.162,,
0.0532,"N[C@H]1CS(=O)(=O)c2cc(F)c(-c3nnc(C4CCCC(F)(F)C4)o3)cc2N(Cc2ccc(OC(F)(F)F)cc2)C1=O (stereo partly drawn) [Example 55, (3R)-3-Amino-7-[5-(3,3-difluorocyclohexyl)-1,3,4-oxadiazol-2-yl]-8-fluoro-1,1-dioxo-5-[[4-(trifluoromethoxy)phenyl]methyl]-2,3-dihydro-1λ^6,5-benzothiazepin-4-one]",282,0.0507,,
0.22,"NC(c1nnc(-c2cc3c(cc2F)S(=O)(=O)C[C@H](N)C(=O)N3Cc2ccc(OC(F)(F)F)cc2)o1)C(F)(F)F (stereo partly drawn) [Example 58, (3R)-3-amino-7-[5-(1-amino-2,2,2-trifluoro-ethyl)-1,3,4-oxadiazol-2-yl]-8-fluoro-1,1-dioxo-5-[[4-(trifluoromethoxy)phenyl]methyl]-2,3-dihydro-1λ^6,5-benzothiazepin-4-one]",126,0.684,,
0.0799,CC(C)(C#N)c1nnc(-c2cc3c(cc2F)S(=O)(=O)C[C@H](N)C(=O)N3Cc2ccc(OC(F)(F)F)cc2)o1 [Example 59],94,0.0545,,
0.535,"Cc1nnc(-c2nnc(-c3cc4c(cc3F)S(=O)(=O)C[C@H](N)C(=O)N4Cc3ccc(OC(F)(F)F)cc3)o2)o1 [Example 60, (3R)-3-amino-8-fluoro-7-[5-(5-methyl-1,3,4-oxadiazol-2-yl)-1,3,4-oxadiazol-2-yl]-1,1-dioxo-5-[[4-(trifluoromethoxy)phenyl]methyl]-2,3-dihydro-1λ^6,5-benzothiazepin-4-one]",110,0.32,,
1.91,"CN[C@@H](C)C(=O)N[C@H]1CS(=O)(=O)c2cc(F)c(-c3nnc(CC(F)(F)F)o3)cc2N(Cc2ccc(OC(F)(F)F)cc2)C1=O [Example 61, (2S)—N-[(3R)-8-fluoro-1,1,4-trioxo-7-[5-(2,2,2-trifluoroethyl)-1,3,4-oxadiazol-2-yl]-5-[[4-(trifluoromethoxy)phenyl]methyl]-2,3-dihydro-1λ^6,5-benzothiazepin-3-yl]-2-(methylamino)propanamide]",144,0.625,,
